In US4699928A, “Fluoroallylamine derivatives” (Merrell Dow Pharmaceuticals Inc., priority 1986, dated 1987):
pIC50: −log10 of the molar value.

Legend:
MAO-A and MAO-B = conditions: cited from earlier work
MAO-B versus MAO-A = experiment: Selectivity of inhibition of MAO-B versus MAO-A in vitro (14C phenethylamine / 14C 5-hydroxytryptamine); format: biochemical; conditions: rat, brain mitochondria
Experimental: Mitochondria are prepared from rat brain by homogenation in phosphate buffer (0.1 M, pH 7.2) followed by differential centrifugation. The mitochondria are suspended in the same buffer, the test compound is added at the desired concentration, and the system is incubated. At different time intervals, aliquots are taken and MAO activity is measured using ^14 C p-tyramine (a mixed substrate) as the substrate (See A. Christmas et al., supra).
(C) The selectivity of a compound of Formula I with respect to inhibition of MAO-A and MAO-B can be determined by repeating the procedure of Part B and measuring the MAO activity using ^14 C 5-hydroxytryptamine (a preferred substrate for MAO-A) and ^14 C phenethylamine (a preferred substrate for MAO-B) as the substrate.

MAO = experiment: Inhibition of MAO in vitro, partially purified rat brain mitochondria, 14C p-tyramine substrate; format: biochemical; conditions: tested as hydrochloride salt
Text: Inhibition of MAO--In vitro testing
(A) The ability of a compound of Formula I to inhibit MAO can be determined in vitro by the method of A. Christmas et al., Br. J. Pharmacol., 45, 490 (1972) in partially purified mitochondria from rat brain using ^14 C p-tyramine as the substrate. The MAO inhibitory activity of a compound is expressed as the "IC50 " value, which is the molar concentration required to produce 50% inhibition of the enzyme.

[1] = test system: heart rate response to p-tyramine; experiment: Cheese effect: potentiation of response to intravenous p-tyramine, pithed rats; format: in vivo, male Sprague-Dawley rats; conditions: p-tyramine i.v.
Experimental: (§1) The following test procedures can be employed to assess the potential of a compound of Formula I for producing the "cheese effect": […]
(§2) Eighteen hours later the animals are anaesthetized with pentobarbitone (60 mg/kg i.p.), in some instances pithed, and in all cases set up for recording heart rate and blood pressure by standard techniques.

[2] = test system: heart rate response to p-tyramine; experiment: Cheese effect: potentiation of response to intraduodenal p-tyramine, anaesthetized rats; format: in vivo, male Sprague-Dawley rats; conditions: p-tyramine i.d.
Experimental: as §1, §2

[3] = low dosages where preferential inhibition of MAO-B occurs; cited from earlier work
depression = conditions: in vivo; cited from earlier work
MAO-A = conditions: cited from earlier work
MAO-B = conditions: cited from earlier work

In the case of `N[C@@H]1C[C@H]1c1ccccc1` (relative stereo) [tranylcypromine], the “preference in action upon MAO” value (MAO-A and MAO-B) is given as “not preferential”.
With `NC/C(=C\F)CSc1ccccc1` [(E)-2-thiophenoxymethyl-3-fluoroallylamine] the “Ratio B:A (inhibitory activity against MAO-B versus MAO-A)” value (MAO-B versus MAO-A) was 100.
In the case of `NC/C(=C/F)CSc1ccc(F)cc1` [(Z)-2-(4'-fluorothiophenoxy) methyl-3-fluoroallylamine], the “Ratio B:A (inhibitory activity against MAO-B versus MAO-A)” value (MAO-B versus MAO-A) was 100.
For `NC/C(=C/F)COc1ccccc1` [(Z)-2-phenoxymethyl-3-fluoroallylamine], the pIC50 (MAO) was 6.00.
With `NC/C(=C/F)CSc1ccccc1` [(Z)-2-thiophenoxymethyl-3-fluoroallylamine] the pIC50 (MAO) was 6.00 and the “Ratio B:A (inhibitory activity against MAO-B versus MAO-A)” value (MAO-B versus MAO-A) was 1,000.
With `C#CCN(C)[C@H](C)Cc1ccccc1` [L-deprenyl, reference compound] the “Potentiation of heart rate response to p-tyramine” value (shortened to “Potentiation … to p-tyramine”) ([1]; 0.1 mg/kg) was 1.3 fold, the “Potentiation … to p-tyramine” value ([1]; 1.0 mg/kg) was 2.2 fold and the “Potentiation … to p-tyramine” value ([2]; 0.1 mg/kg, in words) was “no effect”. The “Potentiation … to p-tyramine” value ([2]; 1.0 mg/kg) was 2.1 fold, the cheese effect [3] was “not observed” and the clinical antidepressant effect (depression) was “clinically effective antidepressant agents”.
In the case of `CNC/C(=C/F)COc1ccc(Cl)cc1Cl` [N-methyl (Z)-2-(2',4'-dichlorophenoxy)methyl-3-fluoroallylamine], the “Ratio B:A (inhibitory activity against MAO-B versus MAO-A)” value (MAO-B versus MAO-A) was 100.
With `C#CCN(C)CCCOc1ccc(Cl)cc1Cl` [clorgyline, reference compound] the pIC50 (MAO) was 8.00, the “Potentiation … to p-tyramine” value ([1]; 0.1 mg/kg) was 5.2 fold and the “Potentiation … to p-tyramine” value ([2]; 0.1 mg/kg) was 5.6 fold. For the same compound, the “preferential inhibition of MAO-A” value (MAO-A) was “MAO-A is preferentially inhibited” and the clinical antidepressant effect (depression) was “clinically effective antidepressant agents”.
In the case of `Cc1cc(C(=O)NNCc2ccccc2)no1` [isocarboxazid], the “preference in action upon MAO” value (MAO-A and MAO-B) is given as “not preferential”.
For `C#CCN(C)Cc1ccccc1` [pargyline], the pIC50 (MAO) is given as 5.70, the “preferential inhibition of MAO-B” value (MAO-B) is given as “MAO-B is preferentially inhibited” and the dose-dependence of selectivity (MAO-A and MAO-B; lower versus higher dosages) is given as “selective inhibitors at lower dosages, but are not selective inhibitors at higher dosages”. The clinical antidepressant effect (depression) was “clinically effective antidepressant agents”.
In the case of `NNCCc1ccccc1` [phenelzine], the “preference in action upon MAO” value (MAO-A and MAO-B) is given as “not preferential”.
